Assays:
ISC-enriched organoids [1] = assay: Primary screen, 384-well 2.5-D organoid differentiation (ENR+CD, 6 days): carbachol-induced lysozyme secretion (LYZ.S); assay type: cell-based, murine; details: primary screen; for Dose.FC.LYZ.S: FC vs plate median; for Dose.FC.LYZ.S (log 2 fold change): vs plate median; for Z.LYZ.S: standard z score; for SSMD.LYZ.S: strictly standardized mean difference
Text: (§1) High-throughput screening.

ISC-enriched organoids [2] = assay: Primary screen, 384-well 2.5-D organoid differentiation (ENR+CD, 6 days, Target Selective Inhibitor Library, vs whole-plate median): ATP (CellTiter-Glo 3D, CTG); details: for Dose.FC.CTG / Z.CTG (standard z score) / Dose.FC.CTG (log 2 fold change) / SSMD.CTG: primary screen; for Dose.FC.CTG: FC vs plate median; for Z.CTG: standard z score of FC; for Dose.FC.CTG (log 2 fold change): vs plate median; for SSMD.CTG: strictly standardized mean difference
ISC-enriched organoids [3] = assay: Primary screen, 384-well 2.5-D organoid differentiation (ENR+CD, 6 days): basal lysozyme secretion (LYZ.NS); assay type: cell-based, murine; details: for Dose.FC.LYZ.NS / Z.LYZ.NS (standard z score) / Dose.FC.LYZ.NS (log 2 fold change) / SSMD.LYZ.NS: primary screen; for Dose.FC.LYZ.NS: FC vs plate median; for Z.LYZ.NS: standard z score of FC; for Dose.FC.LYZ.NS (log 2 fold change): vs plate median; for SSMD.LYZ.NS: strictly standardized mean difference
Text: as §1

[4] = 1st of the 4 dose lines of the treatment (dose not given)
[5] = 2nd of the 4 dose lines of the treatment (dose not given)
[6] = 3rd of the 4 dose lines of the treatment (dose not given)
[7] = 4th of the 4 dose lines of the treatment (dose not given)

Compound | Dose.FC.LYZ.S (ISC-enriched organoids [1]; Dose 0.08 uM) [log 2 fold change] | Dose.FC.LYZ.S (ISC-enriched organoids [1]; Dose 0.40 uM) [log 2 fold change] | Dose.FC.LYZ.S (ISC-enriched organoids [1]; Dose 2.00 uM) [log 2 fold change] | Dose.FC.LYZ.S (ISC-enriched organoids [1]; Dose 10.00 uM) [log 2 fold change] | Dose.FC.CTG (ISC-enriched organoids [2]; Dose 0.08 uM) [log 2 fold change] | Z.CTG (ISC-enriched organoids [2]; Dose 0.08 uM) | Dose.FC.CTG (ISC-enriched organoids [2]; Dose 0.40 uM) [log 2 fold change] | Z.CTG (ISC-enriched organoids [2]; Dose 0.40 uM) | Dose.FC.CTG (ISC-enriched organoids [2]; Dose 2.00 uM) [log 2 fold change] | Z.CTG (ISC-enriched organoids [2]; Dose 2.00 uM) | Dose.FC.CTG (ISC-enriched organoids [2]; Dose 10.00 uM) [log 2 fold change] | Z.CTG (ISC-enriched organoids [2]; Dose 10.00 uM) | Dose.FC.LYZ.NS (ISC-enriched organoids [3]; Dose 0.08 uM) [log 2 fold change] | Z.LYZ.NS (ISC-enriched organoids [3]; Dose 0.08 uM) | Dose.FC.LYZ.NS (ISC-enriched organoids [3]; Dose 0.40 uM) [log 2 fold change] | Z.LYZ.NS (ISC-enriched organoids [3]; Dose 0.40 uM) | Dose.FC.LYZ.NS (ISC-enriched organoids [3]; Dose 2.00 uM) [log 2 fold change] | Z.LYZ.NS (ISC-enriched organoids [3]; Dose 2.00 uM) | Dose.FC.LYZ.NS (ISC-enriched organoids [3]; Dose 10.00 uM) [log 2 fold change] | Z.LYZ.NS (ISC-enriched organoids [3]; Dose 10.00 uM) | further results
CCc1c(C(=O)NCCc2ccc(N3CCCCC3)cc2)[nH]c2ccc(Cl)cc12 [Org 27569] | 0.174 | 0.032 | 0.059 | 0.001 | 0.278 | 0.663 | 0.072 | 0.173 | 0.362 | 0.865 | 0.270 | 0.646 | 0.122 | 1.060 | 0.051 | 0.445 | 0.078 | 0.683 | 0.029 | 0.248 | –
SNS-314 Mesylate | – | – | – | – | – | – | – | – | – | – | – | – | – | – | – | – | – | – | – | – | Dose.FC.LYZ.S (log 2 fold change) (ISC-enriched organoids [1]; Dose 0.08 uM): −0.115; Dose.FC.LYZ.S (log 2 fold change) (ISC-enriched organoids [1]; Dose 0.40 uM): −0.103; Dose.FC.LYZ.S (log 2 fold change) (ISC-enriched organoids [1]; Dose 2.00 uM): −0.133; Dose.FC.LYZ.S (log 2 fold change) (ISC-enriched organoids [1]; Dose 10.00 uM): −0.198; Z.CTG (standard z score) (ISC-enriched organoids [2]; Dose 0.08 uM): −1.591; Dose.FC.CTG (log 2 fold change) (ISC-enriched organoids [2]; Dose 0.08 uM): −0.666; Z.CTG (standard z score) (ISC-enriched organoids [2]; Dose 0.40 uM): −1.857; Dose.FC.CTG (log 2 fold change) (ISC-enriched organoids [2]; Dose 0.40 uM): −0.777; Z.CTG (standard z score) (ISC-enriched organoids [2]; Dose 2.00 uM): −1.142; Dose.FC.CTG (log 2 fold change) (ISC-enriched organoids [2]; Dose 2.00 uM): −0.478; Z.CTG (standard z score) (ISC-enriched organoids [2]; Dose 10.00 uM): −1.480; Dose.FC.CTG (log 2 fold change) (ISC-enriched organoids [2]; Dose 10.00 uM): −0.620; Z.LYZ.NS (standard z score) (ISC-enriched organoids [3]; Dose 0.08 uM): −0.620; Dose.FC.LYZ.NS (log 2 fold change) (ISC-enriched organoids [3]; Dose 0.08 uM): −0.071; Z.LYZ.NS (standard z score) (ISC-enriched organoids [3]; Dose 0.40 uM): −0.515; Dose.FC.LYZ.NS (log 2 fold change) (ISC-enriched organoids [3]; Dose 0.40 uM): −0.059; Z.LYZ.NS (standard z score) (ISC-enriched organoids [3]; Dose 2.00 uM): −1.111; Dose.FC.LYZ.NS (log 2 fold change) (ISC-enriched organoids [3]; Dose 2.00 uM): −0.128; Z.LYZ.NS (standard z score) (ISC-enriched organoids [3]; Dose 10.00 uM): −1.109; Dose.FC.LYZ.NS (log 2 fold change) (ISC-enriched organoids [3]; Dose 10.00 uM): −0.127
CC(C)C[C@H](NC(=O)CNC(=O)c1cc(Cl)ccc1Cl)B(O)O [MLN2238] | – | – | – | – | – | −3.952 | – | −2.637 | – | −2.944 | – | −4.205 | – | – | – | – | – | – | – | – | Z.LYZ.S (ISC-enriched organoids [1]; [4]): −2.478; Z.LYZ.S (ISC-enriched organoids [1]; [5]): −2.317; Z.LYZ.S (ISC-enriched organoids [1]; [6]): −2.280; Z.LYZ.S (ISC-enriched organoids [1]; [7]): −2.394; SSMD.LYZ.S (ISC-enriched organoids [1]; [4]): −1.588; SSMD.LYZ.S (ISC-enriched organoids [1]; [5]): −1.620; SSMD.LYZ.S (ISC-enriched organoids [1]; [6]): −1.733; SSMD.LYZ.S (ISC-enriched organoids [1]; [7]): −1.739; SSMD.CTG (ISC-enriched organoids [2]; [4]): −2.218; SSMD.CTG (ISC-enriched organoids [2]; [5]): −0.972; SSMD.CTG (ISC-enriched organoids [2]; [6]): −1.669; SSMD.CTG (ISC-enriched organoids [2]; [7]): −1.891; SSMD.LYZ.NS (ISC-enriched organoids [3]; [4]): −1.766; SSMD.LYZ.NS (ISC-enriched organoids [3]; [5]): −1.837; SSMD.LYZ.NS (ISC-enriched organoids [3]; [6]): −1.787; SSMD.LYZ.NS (ISC-enriched organoids [3]; [7]): −2.223
S=C=Nc1cccc(NC(=S)NCCCCNC(=S)Nc2cccc(N=C=S)c2)c1 [MRS 2578] | 0.095 | 0.067 | 0.023 | 0.013 | −0.142 | −0.339 | 0.061 | 0.146 | −0.159 | −0.381 | −0.228 | −0.544 | 0.116 | 1.011 | 0.036 | 0.311 | 0.031 | 0.270 | 0.032 | 0.276 | –

Source: patent US20230398130A1, “METHODS AND COMPOSITIONS FOR DIFFERENTIATING STEM CELLS” (Massachusetts Institute of Technology, priority 2020, published 2023)
